Data as given in article PMC3717557 (Journal of medicinal chemistry, 2012).
Values after ≈ are worked out from the molar mass of the structure shown. Where two headings read alike, the source gives them in different places.

Legend:
[1] = Stability in buffer at 4°C; type: physicochemical; conditions: 0.01 M Tris/HCl pH 7.4, concentration close to saturation
[2] = pKa of NH proton by UV absorbance pH titration; type: physicochemical; conditions: dilute phosphate buffer
[3] = biological target: human α1β2γ2L GABAA receptor (Homo sapiens, UniProt P14867+P18507+P47870); type: cell-based
tadpoles = conditions: cited from earlier work
human α1β3 GABAAR = biological target: T1, human α1β3 GABAAR (Homo sapiens, UniProt P14867+P28472); conditions: cited from earlier work
T1 sequence (P14867 28-456): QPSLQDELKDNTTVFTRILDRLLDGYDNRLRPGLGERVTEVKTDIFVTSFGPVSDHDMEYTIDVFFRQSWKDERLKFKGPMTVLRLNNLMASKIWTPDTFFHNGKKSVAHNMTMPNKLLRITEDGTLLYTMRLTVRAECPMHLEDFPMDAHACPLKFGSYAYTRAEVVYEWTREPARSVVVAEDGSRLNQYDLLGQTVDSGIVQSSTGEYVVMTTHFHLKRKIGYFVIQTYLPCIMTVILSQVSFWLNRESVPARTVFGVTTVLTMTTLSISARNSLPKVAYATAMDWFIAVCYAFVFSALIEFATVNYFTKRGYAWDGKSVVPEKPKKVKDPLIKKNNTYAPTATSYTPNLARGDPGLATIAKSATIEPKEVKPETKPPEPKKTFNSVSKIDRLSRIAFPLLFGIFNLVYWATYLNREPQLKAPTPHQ
T1 sequence (P28472 26-473): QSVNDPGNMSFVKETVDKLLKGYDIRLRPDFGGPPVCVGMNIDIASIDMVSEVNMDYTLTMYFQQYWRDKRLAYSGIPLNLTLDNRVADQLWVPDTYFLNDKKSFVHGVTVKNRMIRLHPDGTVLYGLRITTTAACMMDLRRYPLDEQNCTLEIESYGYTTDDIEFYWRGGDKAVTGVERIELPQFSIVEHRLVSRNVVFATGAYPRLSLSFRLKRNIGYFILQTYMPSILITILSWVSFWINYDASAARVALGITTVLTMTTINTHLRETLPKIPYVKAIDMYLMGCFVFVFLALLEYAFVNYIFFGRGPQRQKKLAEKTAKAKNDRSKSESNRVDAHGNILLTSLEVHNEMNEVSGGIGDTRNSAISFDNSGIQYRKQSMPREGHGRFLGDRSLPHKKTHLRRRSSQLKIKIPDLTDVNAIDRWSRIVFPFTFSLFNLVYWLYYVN

[4] = cited from earlier work
[5] = cited from earlier work; remark: listed apart in the source
[6] = cited from earlier work; remark: listed apart in the source
GABAA receptor = conditions: concentrations close to anesthetic EC50 (65 μM); cited from earlier work
[7] = read-out: general anesthetic EC50
[8] = read-out: EC50, tadpole loss of righting reflex

Chain of human α1β2γ2L GABAA receptor (P47870 25-512 limits assumed, one chain of several): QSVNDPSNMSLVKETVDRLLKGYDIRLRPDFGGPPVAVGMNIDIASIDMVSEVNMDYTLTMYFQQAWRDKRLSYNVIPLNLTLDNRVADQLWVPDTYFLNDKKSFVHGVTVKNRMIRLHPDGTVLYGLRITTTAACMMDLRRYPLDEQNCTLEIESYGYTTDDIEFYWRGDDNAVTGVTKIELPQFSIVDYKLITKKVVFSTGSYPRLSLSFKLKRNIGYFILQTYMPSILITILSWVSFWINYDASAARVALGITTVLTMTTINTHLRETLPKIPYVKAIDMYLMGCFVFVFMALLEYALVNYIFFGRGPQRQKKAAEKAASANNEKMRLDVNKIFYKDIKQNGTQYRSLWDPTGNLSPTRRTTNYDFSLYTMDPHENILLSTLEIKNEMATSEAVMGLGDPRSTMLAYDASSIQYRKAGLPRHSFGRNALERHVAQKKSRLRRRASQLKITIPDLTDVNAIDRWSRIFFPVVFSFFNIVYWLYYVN
Chain of human α1β2γ2L GABAA receptor (P18507 40-475, one chain of several): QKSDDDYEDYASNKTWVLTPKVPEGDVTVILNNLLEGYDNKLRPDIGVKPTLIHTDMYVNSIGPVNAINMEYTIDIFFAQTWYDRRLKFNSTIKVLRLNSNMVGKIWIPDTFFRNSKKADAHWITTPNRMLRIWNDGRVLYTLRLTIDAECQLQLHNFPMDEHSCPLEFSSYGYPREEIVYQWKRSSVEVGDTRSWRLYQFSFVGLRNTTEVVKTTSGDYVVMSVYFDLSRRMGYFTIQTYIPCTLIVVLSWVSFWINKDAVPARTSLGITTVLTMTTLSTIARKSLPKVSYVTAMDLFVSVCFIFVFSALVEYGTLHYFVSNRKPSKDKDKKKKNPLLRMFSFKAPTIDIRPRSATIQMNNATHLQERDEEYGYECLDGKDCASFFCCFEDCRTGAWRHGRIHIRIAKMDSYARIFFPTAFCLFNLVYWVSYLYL

What does the source list for `C=CCC1(c2cccc(C3(C(F)(F)F)N=N3)c2)C(=O)NC(=O)N(C)C1=O` (racemic) [(±)-14, (±)-5-Allyl-1-methyl-5-[3-(3-trifluoromethyl-3H-diazirin-3-yl)-phenyl]-pyrimidine-2,4,6-trione]?
time stable in buffer [1]: at least 2.5 days; pKa [2]: 7.48 ± 0.08

With `NCCCC(=O)O` [GABA, γ-aminobutyric acid] as the compound, how does the “GABA concentration response nH” value ([3]; GABA alone) read?
Its value is 1.8 ± 0.1.

With `CCOC(=O)c1cncn1[C@H](C)c1ccccc1` [R-(+)-etomidate] as the compound, how does the EC50 (tadpoles; [7]) read?
Its EC50 is 2.3 µM.

With `C=CC[C@@]1(c2cccc(C3(C(F)(F)F)N=N3)c2)C(=O)NC(=O)N(C)C1=O` [R-(−)-14] as the compound, how does the “GABA nH in the presence of compound” value ([3]; 8 μM compound) read?
Its value is 1.0 ± 0.1.

With `C[C@H](c1ccccc1)n1cncc1C(=O)OCc1ccc(C2(C(F)(F)F)N=N2)cc1` [aryldiazirine analog of etomidate] as the compound, how does the “efficiency of α1β3 GABAAR subunit photolabeling” value (human α1β3 GABAAR) read?
Its value is 0.5%.

What does the source list for `CCC1(c2ccccc2)C(=O)NC(=O)N(C)C1=O` (stereo not drawn) [mephobarbital]?
pKa [4]: 7.65; EC50 (tadpoles; [8]): 90 µM; octanol/water partition coefficient [5]: 69; solubility in water [6]: 600 µM (≈ 148 µg/mL)

With `C=CCC1(C(C)C#CCC)C(=O)N=C(O)N(C)C1=O` (stereo not drawn) [methohexital] as the compound, how does the EC50 (tadpoles; [8]) read?
The EC50 was 20 µM.

What does the source list for `CCCC(C)C1(CC)C(=O)NC(=O)NC1=O` (stereo not drawn) [pentobarbital, 5-ethyl-5-(pentan-2-yl)pyrimidine-2,4,6(1H,3H,5H)-trione]?
EC50 (tadpoles; read-out: EC50 producing anesthesia in tadpoles): ~140 µM; fold potentiation of 10 μM GABA currents (GABAA receptor): 4-6 fold

For `CCC1(c2ccccc2)C(=O)NC(=O)NC1=O` [phenobarbital], which EC50 (tadpoles; [8]) is on record?
Its EC50 is 3300 µM.

For `CC(C)c1cccc(C(C)C)c1O` [propofol], which EC50 (tadpoles; [7]) is on record?
Its EC50 is 2.2 µM.
